The source of these data is US20070128217A1 (priority 2003, published 2007).

Test [1] concerns rabbit serum obtained by immunizing a rabbit with the SARS-CoV strain Frankfurt 1. Type of test: binding. Set-up: Binding of a rabbit serum to linear peptides / Binding of a rabbit serum to looped peptides / Rabbit serum linear peptides / Rabbit serum looped peptides / Binding of a rabbit serum to linear peptides of protein N of SARS-CoV Urbani (Rabbit serum linear peptides) / Binding of a rabbit serum to looped/cyclic peptides of protein N of SARS-CoV Urbani (Rabbit serum looped peptides): unit not given here.

Test [2] relates to control sera (pooled serum of ten healthy LUMC hospital workers; commercial negative donor pooled serum from the Dutch bloodbank). The format is binding, human. Set-up: Binding of Control serum LUMC to linear peptides / Binding of Control serum Blood-bank to linear peptides / Binding of Control serum LUMC to looped peptides / Binding of Control Serum Blood-Bank to Looped peptides / Binding of Control serum LUMC to linear peptides of the protein M of SARS-CoV Urbani / Binding of Control serum Blood-bank to linear peptides of the protein M of SARS-CoV Urbani / Binding of Control serum LUMC to looped peptides of the protein M of SARS-CoV Urbani / Binding of Control Serum Blood-Bank to Looped peptides of the protein M of SARS-CoV Urbani: unit not given here.

For test [3], the system named is antibodies in sera from SARS patients (sera 1a, 1b, 2, 6, 37, 62, London, SARS-yellow, SARS-green). The format is binding, human. Set-up: Binding of serum 6 to linear peptides of protein X1 of SARS-CoV Urbani / Binding of serum 37 to linear peptides of protein X1 of SARS-CoV Urbani / Binding of serum 6 to looped/cyclic peptide (PEPSCAN-ELISA) / Binding of serum 37 to looped/cyclic peptide (PEPSCAN-ELISA) / Binding of serum 37 to looped/cyclic peptides of protein X1 of SARS-CoV Urbani / Binding of serum 6 to linear peptides of protein X2 / Binding of serum 37 to linear peptides of protein X2 / Binding of serum 37 to looped/cyclic peptides of protein X2 of SARS-CoV Urbani / Binding of serum 6 to linear peptides of protein M of SARS-CoV Urbani / Binding of serum 37 to linear peptides of protein M of SARS-CoV Urbani / Binding of serum 6 to looped/cyclic peptides of protein M of SARS-CoV Urbani / Binding of serum 37 to looped/cyclic peptides of protein M of SARS-CoV Urbani / Binding of serum 6 to linear peptides of protein X3 of SARS-CoV Urbani / Binding of serum 37 to linear peptides of protein X3 of SARS-CoV Urbani / Binding of serum 37 to looped/cyclic peptides of protein X3 of SARS-CoV Urbani / Binding of serum 6 to linear peptides of protein X4 of SARS-CoV Urbani / Binding of serum 37 to linear peptides of protein X4 of SARS-CoV Urbani / Binding of serum 37 to looped/cyclic peptides of protein X4 of SARS-CoV Urbani / Binding of serum 6 to linear peptides of protein X5 of SARS-CoV Urbani / Binding of serum 37 to linear peptides of protein X5 of SARS-CoV Urbani / Binding of serum 37 to looped/cyclic peptides of protein X5 of SARS-CoV Urbani / Binding of serum 6 to linear peptides of protein N of SARS-CoV Urbani / Binding of serum 37 to linear peptides of protein N of SARS-CoV Urbani / Binding of serum 6 to linear peptide (PEPSCAN-ELISA) / Binding of serum 1a to looped/cyclic peptides of protein N of SARS-CoV Urbani / Binding of serum 1b to looped/cyclic peptides of protein N of SARS-CoV Urbani / Binding of serum 2 to looped/cyclic peptides of protein N of SARS-CoV Urbani / Binding of serum 6 to looped/cyclic peptides of protein N of SARS-CoV Urbani / Binding of serum 37 to looped/cyclic peptides of protein N of SARS-CoV Urbani / Binding of serum 62 to looped/cyclic peptides of protein N of SARS-CoV Urbani / Binding of serum London to looped/cyclic peptides of protein N of SARS-CoV Urbani / Binding of serum SARS-green to looped/cyclic peptides of protein N of SARS-CoV Urbani: unit not given here.

Consider FACADGTRHTYQLRA, for which the “Recognition of the peptide by the rabbit serum” value in test [1] is recorded as “recognized”. In addition, in test [2], the “Binding of Control Serum Blood-Bank to Looped peptides” value is 0.3, the “Binding of Control serum Blood-bank to linear peptides” value is reported as 0.7, the “Binding of Control serum LUMC to linear peptides” value is 0.4 and the “Binding of Control serum LUMC to looped peptides” value came out at 0.4. Moreover, in test [3], the “Binding of serum 1a to linear peptides of protein X4 of SARS-CoV Urbani” value turned out to be 0.7, the “Binding of serum 1a to looped/cyclic peptides of protein X4 of SARS-CoV Urbani” value is on record as 0.7, the “Binding of serum 1b to linear peptides of protein X4 of SARS-CoV Urbani” value amounted to 0.4 and the “Binding of serum 1b to looped/cyclic peptides of protein X4 of SARS-CoV Urbani” value was determined as 0.6. In test [3], the “Binding of serum 2 to linear peptides of protein X4 of SARS-CoV Urbani” value worked out at 0.4, the “Binding of serum 2 to looped/cyclic peptides of protein X4 of SARS-CoV Urbani” value was 0.6, the “Binding of serum 6 to linear peptides of protein X4 of SARS-CoV Urbani” value came out at 0.4 and the “Binding of serum 6 to looped/cyclic peptides of protein X4 of SARS-CoV Urbani” value worked out at 0.3. In test [3], the “Binding of serum 37 to linear peptides of protein X4 of SARS-CoV Urbani” value is 0.6, the “Binding of serum 37 to looped/cyclic peptides of protein X4 of SARS-CoV Urbani” value is reported as 0.7, the “Binding of serum 62 to linear peptides of protein X4 of SARS-CoV Urbani” value was 0.7 and the “Binding of serum 62 to looped/cyclic peptides of protein X4 of SARS-CoV Urbani” value turned out to be 0.7. In test [3], the “Binding of serum London to linear peptides of protein X4 of SARS-CoV Urbani” value is 0.8, the “Binding of serum London to looped/cyclic peptides of protein X4 of SARS-CoV Urbani” value came out at 0.4, the “Binding of serum SARS-green to linear peptides of protein X4 of SARS-CoV Urbani” value turned out to be 0.5 and the “Binding of serum SARS-green to looped/cyclic peptides of protein X4 of SARS-CoV Urbani” value was determined as 0.8. Further, in test [3], the “Binding of serum SARS-yellow to linear peptides of protein X4 of SARS-CoV Urbani” value came to 0.2 and the “Binding of serum SARS-yellow to looped/cyclic peptides of protein X4 of SARS-CoV Urbani” value came out at 0.3.

Turning to FALTCTSTHFAFACA, in test [1], the “Rabbit serum linear peptides” value turned out to be 0.6 and the “Rabbit serum looped peptides” value was determined as 0.4. In test [2], the “Binding of Control Serum Blood-Bank to Looped peptides” value is 0.7, the “Binding of Control serum Blood-bank to linear peptides” value amounted to 0.6, the “Binding of Control serum LUMC to linear peptides” value was determined as 0.6 and the “Binding of Control serum LUMC to looped peptides” value is listed as 0.6. In test [3], the “Binding of serum 1a to linear peptides of protein X4 of SARS-CoV Urbani” value is 0.7, the “Binding of serum 1a to looped/cyclic peptides of protein X4 of SARS-CoV Urbani” value is given as 0.8, the “Binding of serum 1b to linear peptides of protein X4 of SARS-CoV Urbani” value is 0.5 and the “Binding of serum 1b to looped/cyclic peptides of protein X4 of SARS-CoV Urbani” value was 0.5. For the same sequence, in test [3], the “Binding of serum 2 to linear peptides of protein X4 of SARS-CoV Urbani” value is listed as 0.4, the “Binding of serum 2 to looped/cyclic peptides of protein X4 of SARS-CoV Urbani” value is 0.7, the “Binding of serum 6 to linear peptides of protein X4 of SARS-CoV Urbani” value is recorded as 0.5 and the “Binding of serum 6 to looped/cyclic peptides of protein X4 of SARS-CoV Urbani” value came to 0.5. For the same sequence, in test [3], the “Binding of serum 37 to linear peptides of protein X4 of SARS-CoV Urbani” value was 0.7, the “Binding of serum 37 to looped/cyclic peptides of protein X4 of SARS-CoV Urbani” value amounted to 0.6, the “Binding of serum 62 to linear peptides of protein X4 of SARS-CoV Urbani” value worked out at 0.7 and the “Binding of serum 62 to looped/cyclic peptides of protein X4 of SARS-CoV Urbani” value is 0.7. Further, in test [3], the “Binding of serum London to linear peptides of protein X4 of SARS-CoV Urbani” value is 0.7, the “Binding of serum London to looped/cyclic peptides of protein X4 of SARS-CoV Urbani” value amounted to 0.3, the “Binding of serum SARS-green to linear peptides of protein X4 of SARS-CoV Urbani” value was found to be 0.5 and the “Binding of serum SARS-green to looped/cyclic peptides of protein X4 of SARS-CoV Urbani” value was 0.5. In test [3], the “Binding of serum SARS-yellow to linear peptides of protein X4 of SARS-CoV Urbani” value was found to be 0.6 and the “Binding of serum SARS-yellow to looped/cyclic peptides of protein X4 of SARS-CoV Urbani” value was 0.7.

On to FARTRSMWSFNPETN, for which, in test [1], the “Rabbit serum linear peptides” value is 0.4 and the “Rabbit serum looped peptides” value came to 0.3. Further, in test [2], the “Binding of Control Serum Blood-Bank to Looped peptides of the protein M of SARS-CoV Urbani” value stood at 0.8, the “Binding of Control serum Blood-bank to linear peptides of the protein M of SARS-CoV Urbani” value was found to be 0.9, the “Binding of Control serum LUMC to linear peptides of the protein M of SARS-CoV Urbani” value is on record as 0.5 and the “Binding of Control serum LUMC to looped peptides of the protein M of SARS-CoV Urbani” value amounted to 0.6. Further, in test [3], the “Binding of serum 1a to linear peptides of protein M of SARS-CoV Urbani” value turned out to be 0.8, the “Binding of serum 1a to looped/cyclic peptides of protein M of SARS-CoV Urbani” value is 0.9, the “Binding of serum 1b to linear peptides of protein M of SARS-CoV Urbani” value is 0.7 and the “Binding of serum 1b to looped/cyclic peptides of protein M of SARS-CoV Urbani” value is listed as 0.6. Also, in test [3], the “Binding of serum 2 to linear peptides of protein M of SARS-CoV Urbani” value is 0.7, the “Binding of serum 2 to looped/cyclic peptides of protein M of SARS-CoV Urbani” value was 0.6, the “Binding of serum 6 to linear peptides of protein M of SARS-CoV Urbani” value is 0.4 and the “Binding of serum 6 to looped/cyclic peptides of protein M of SARS-CoV Urbani” value is 0.7. For the same sequence, in test [3], the “Binding of serum 37 to linear peptides of protein M of SARS-CoV Urbani” value worked out at 0.9, the “Binding of serum 37 to looped/cyclic peptides of protein M of SARS-CoV Urbani” value stood at 0.9, the “Binding of serum 62 to linear peptides of protein M of SARS-CoV Urbani” value amounted to 0.8 and the “Binding of serum 62 to looped/cyclic peptides of protein M of SARS-CoV Urbani” value was determined as 0.8. In addition, in test [3], the “Binding of serum London to linear peptides of protein M of SARS-CoV Urbani” value was found to be 0.4, the “Binding of serum London to looped/cyclic peptides of protein M of SARS-CoV Urbani” value worked out at 0.3, the “Binding of serum SARS-green to linear peptides of protein M of SARS-CoV Urbani” value was found to be 0.3 and the “Binding of serum SARS-green to looped/cyclic peptides of protein M of SARS-CoV Urbani” value is given as 0.0. Moreover, in test [3], the “Binding of serum SARS-yellow to linear peptides of protein M of SARS-CoV Urbani” value worked out at 0.1 and the “Binding of serum SARS-yellow to looped/cyclic peptides of protein M of SARS-CoV Urbani” value turned out to be 0.5.

As to FLQCINACRIIMRCW, in test [1], the “Binding of a rabbit serum to linear peptides” value is 0.1 and the “Binding of a rabbit serum to looped peptides” value was found to be 0.8. In test [2], the “Binding of Control Serum Blood-Bank to Looped peptides” value stood at 0.6, the “Binding of Control serum Blood-bank to linear peptides” value worked out at 0.8, the “Binding of Control serum LUMC to linear peptides” value was 0.9 and the “Binding of Control serum LUMC to looped peptides” value came to 0.6. Also, in test [3], the “Binding of serum 1a to linear peptides of protein X1 of SARS-CoV Urbani” value was determined as 0.8, the “Binding of serum 1a to looped/cyclic peptide (PEPSCAN-ELISA)” value was 0.6, the “Binding of serum 1b to linear peptides of protein X1 of SARS-CoV Urbani” value worked out at 0.6 and the “Binding of serum 1b to looped/cyclic peptide (PEPSCAN-ELISA)” value is 0.4. For the same sequence, in test [3], the “Binding of serum 2 to linear peptides of protein X1 of SARS-CoV Urbani” value worked out at 0.6, the “Binding of serum 2 to looped/cyclic peptide (PEPSCAN-ELISA)” value came to 0.5, the “Binding of serum 6 to linear peptides of protein X1 of SARS-CoV Urbani” value worked out at 0.7 and the “Binding of serum 6 to looped/cyclic peptide (PEPSCAN-ELISA)” value is listed as 0.7. Further, in test [3], the “Binding of serum 37 to linear peptides of protein X1 of SARS-CoV Urbani” value is 0.7, the “Binding of serum 37 to looped/cyclic peptide (PEPSCAN-ELISA)” value was determined as 0.6, the “Binding of serum 62 to linear peptides of protein X1 of SARS-CoV Urbani” value is given as 0.6 and the “Binding of serum 62 to looped/cyclic peptide (PEPSCAN-ELISA)” value was determined as 0.6. In test [3], the “Binding of serum London to linear peptides of protein X1 of SARS-CoV Urbani” value was determined as 0.3, the “Binding of serum London to looped/cyclic peptide (PEPSCAN-ELISA)” value was 1.0, the “Binding of serum SARS-green to linear peptides of protein X1 of SARS-CoV Urbani” value amounted to 0.3 and the “Binding of serum SARS-green to looped/cyclic peptide (PEPSCAN-ELISA)” value came out at 0.2. In test [3], the “Binding of serum SARS-yellow to linear peptides of protein X1 of SARS-CoV Urbani” value was determined as 0.4 and the “Binding of serum SARS-yellow to looped/cyclic peptide (PEPSCAN-ELISA)” value turned out to be 0.6.
